Data on one molecule can be found in patent publication US8278469B2, “17-hydroxy-17-pentafluoroethyl-estra-4,9(10)-dien-11-aryl derivatives, method of production thereof and use thereof for the treatment of diseases” (Bayer Pharma Aktiengesellschaft, priority 2009, dated 2012).

Series [1] in a line: Metabolic stability in human liver microsomes (HLM). Format: in vitro ADME. The settings on record: HLM 0.5 mg/ml protein, 1 μM, 37° C., pH 7.4; well-stirred model, phase I reactions. As to the method:
Metabolic Stability of (11β,17β)-17-hydroxy-11-[4-(methylsulphonyl)phenyl]-17-(pentafluoroethyl)estra-4,9-dien-3-one and (11β,17β)-17-hydroxy-11-[4′-(methylsulphonyl)-biphenyl-4-4-yl]-17-(pentafluoroethyl)estra-4,9-dien-3-one in Human Liver Microsomes (HLM)
Isolated human liver microsomes (HLM) were used for assessing the metabolic stability of compounds of general formula I.
Incubations were carried out with 2.4 ml of HLM solution (0.5 mg/ml protein content), 30 μl of the test compound (final concentration 1 μM) and 0.6 ml of the cofactor mixture (=NADPH-generating system of 3 IU glucose-6-phosphate dehydrogenase, 14.6 mg glucose-6-phosphate, 1.2 mg NADP) at 37° C. in 100 mM phosphate buffer at pH 7.4. Samples are taken at 6 time points (2-60 min), precipitated with an equal volume of methanol and the recovery of the test substances used in the supernatant is determined by LC-MS/MS analysis. The intrinsic clearance of the substance in the liver microsome preparation can be calculated from the half-life found for the breakdown of the substance. Based on this, together with various physiological characteristics according to the well-stirred model, it is then possible to predict a (metabolic) in vivo clearance with respect to phase I reactions. […]
On the technique in general: Microsomes from liver hold many membrane-bound enzymes, among them those of drug oxidation.

Series [2] is described as follows: Permeation in Caco-2 cells. Type of series: in vitro ADME. Particulars: human, Caco-2, 2 μM, 37° C., apical to basolateral. As to the method: Permeation of (11β,17β)-17-hydroxy-11-[4-(methylsulphonyl)phenyl]-17-(pentafluoroethyl)estra-4,9-dien-3-one in Caco-2 Cells
For the permeation studies, Caco-2 cells with a cell count of 300000 cells/ml were cultivated on Transwell Clear filter inserts (polyester; pore size 0.4 μm) in 12-well cell culture plates for at least 14 days in cell culture medium (1.5 ml) at 37° C., 5% CO2 and 95% air humidity. Before the test, to verify the “compactness” of the cell monolayer, the transepithelial resistance (TEER value) was determined, which must be greater than 300 Ωcm^2. Then the cell culture medium was replaced with hot transport buffer (0.5 ml apical, 1.5 ml basolateral) and the cells were equilibrated in it for 5 min. The permeability test was performed in duplicate at a substance concentration of 2 μM. At the start of the experiment, 100 μl (Ap0 min) was taken from the apical compartment and 100 μl of ice-cold stopping solution was added to it immediately. […] After further dilution of the samples with 4 times the volume of stopping solution/transport buffer (1+1) they were sedimented overnight at −20° C. and the supernatant was analysed by LCMS/MS. The Papp value of the substances was calculated from the following formula. […]

The next series concerns cardiovascular system. The series can be described thus: Action on the cardiovascular system (incl. ECG) of anaesthetized beagle dogs. Format: in vivo. Particulars: anaesthetized female beagle dogs, i.v. 0.1; 0.33 and 1 mg/kg, in comparison with the control. As to the method:
Investigation of the Action on the Cardiovascular System (Incl. ECG) of Anaesthetized Beagle Dogs
(11β,17β)-17-Hydroxy-11-[4-(methylsulphonyl)phenyl]-17-(pentafluoroethyl)estra-4,9-dien-3-one, dissolved in a mixture of PEG 400 and HP-β-CD (60% PEG 400, 40% HP-β-CD 30%), was administered intravenously to anaesthetized female beagle dogs. The body weight of the dogs was >9 kg. 3 dogs were treated per group and additionally 3 dogs in the control group. 0.1; 0.33 and 1 mg/kg of the substance was administered in 3 consecutive infusions, in each case over a period of 30 minutes. The maximum amount of vehicle was 0.4 ml per kg for 30 minutes. Blood samples were taken from the animals at various time points. The highest plasma level (average for all 3 animals) was 1650 ng/ml at the end of the third infusion.

Series [3] in a line: Chemical stability against temperature, light and oxidative stress. Format: physicochemical. The settings on record: compared with the analogue with an alkanoyl or hydroxyalkanoyl group.
Another series deals with rodents and non-rodents. Particulars: in vivo.

As a reminder, the Papp A→B is the apparent permeability from the apical to the basolateral side of a cell layer. Read a low Papp A→B as slow passage.

As to `C[C@]12C[C@H](c3ccc(S(C)(=O)=O)cc3)C3=C4CCC(=O)C=C4CC[C@H]3[C@@H]1CC[C@@]2(O)C(F)(F)C(F)(F)F` [Example 4, (11β,17β)-17-Hydroxy-11-[4-(methylsulphonyl)phenyl]-17-(pentafluoroethyl)estra-4,9-dien-3-one], the “(metabolic) in vivo clearance in humans predicted” value in series [1] is 1.7 mL/min/kg. Further, the Papp A→B at 90 min, 2 μM in series [2] was 10.4 ×10⁻⁶ cm/s. The “Effects on the cardiovascular system (pulmonary artery pressure, systemic arterial blood pressure, heart rate, ECG)” value in the series with cardiovascular system is on record as “no biologically relevant effects on the cardiovascular system”. For the same molecule, in series [3], the Oxidation sensitivity entry is reported as “surprisingly low oxidation sensitivity”, the “Stability under the influence of UV light” value is recorded as “surprisingly high stability” and the “Stability under thermal load” value is listed as “surprisingly high stability”. The “Safety profile (in acute and chronic tests)” value in the series with rodents and non-rodents was “especially favourable safety profile”.
